Experimental data taken from patent publication US9446051B2, “Neuroprotection and myelin repair using nestorone®” (The Population Council, Inc., priority 2009, dated 2016).

What was measured:
[1] = system: organotypic neonatal rat or mouse cerebellar slice culture; assay: Myelination in organotypic cerebellar slice culture, measured by myelin basic protein (MBP) immunoreactivity; assay type: cell-based
Excerpt: In experiments conducted in organotypic neonatal rat or mouse cerebellar slice culture, progesterone accelerated axon myelination (13,14).

[2] = system: lysolecithin-demyelinated cerebellar slices; assay: Remyelination of lysolecithin-demyelinated cerebellar slices (MBP staining intensity); assay type: cell-based, rat or mouse; conditions: NES 20 μM, 3 days of incubation
Description: In the same animal model, cerebellar slices were cultured until myelination was complete, then incubated overnight with lysolecithin (LYSO) to produce demyelination utilizing a known technique, (15) followed by 3 days of incubation with NES 20 μM in fresh culture medium (10% penetration in slices). Slices were immunostained for MBP. […] MBP staining intensity was measured in cerebellar slices after completion of normal myelination, after demyelination with lysolecithin, and after 3 days of incubation with NES at 20 μm, RU486 at 10 μM, or NES+RU486.

[3] = system: neural progenitor cell (NPC); assay: Neural progenitor cell proliferation, BrdU chemiluminescence ELISA; assay type: cell-based, rat
Description: In vitro studies were carried out to determine neural progenitor cell (NPC) regeneration in rats. Cell proliferation was determined by S phase incorporation of BrdU. After 4 to 6 hours starvation (medium without supplements), rNPCs were loaded with 10 μM BrdU in the presence or absence of bFGF and varying concentrations of P4 or test progestins in unsupplemented maintenance medium for 1d. The rNPCs were then processed as described previously (1, 14). After subtracting the value of the blank (without BrdU loading), data were analyzed using a one-way ANOVA, followed by a Neuman-Keuls post hoc test.

[4] = system: primary hippocampal neurons; assay: Neuroprotection of primary hippocampal neurons against glutamate, LDH release; assay type: cell-based
Description: The effect of NES and other progestins on CNS plasticity and the neuroprotective efficacy against glutamate toxicity has also been evaluated. LDH was measured, as a well-accepted assay, to determine such effect after exposure of the cells to glutamate, and the neuronal viability was assessed under the action of various progestins.
Comparisons of neuroprotection against neurodegenerative insults were carried out. Efficacy was determined in connection with the protection of primary hippocampal neurons against degeneration induced by excitoxic glutamate. Hippocampal neuronal cultures grown on […] culture plates for 7d in vitro were pretreated with vehicle alone or test compounds, followed by exposure to 200 μM glutamate as previously described (13). After glutamate exposure, cultures were washed with HEPES-buffered saline solution and replaced with fresh NBM containing the test compounds or combinations. Cultures were returned to the incubator and incubated for 24 hours prior to analysis of neuronal viability using colorimetric LDH release in the media. Dose-response analysis was conducted for each of the progestins tested, and the results are shown in FIGS. 7A-F. Neuroprotective efficiency was calculated as follows: NE=(Vsample−Vglutamate)/(Vsubcontrol−Vglutamate).

[5] = system: hippocampus of Sprague-Dawley ovariectomized female rats; assay: In vivo NPC proliferation and cell viability in ovariectomized rats (Western blot, FACS of BrdU+ cells); set-up: species or system rat
Description: The generalized ability of the above in vitro findings to the in vivo condition were investigated. Analyses of NPC proliferation in rats and cell viability were conducted in three-month-old Sprague-Dawley ovariectomized female rats with various of the progestins. […] In order to assess the total number of BrdU+ cells, the contralateral hippocampal hemisphere used for protein analysis was fixed and processed by FACS analysis. The total number of BrdU+ cells per each hippocampus was determined and normalized to that of vehicle control. […] In order to measure cell viability in terms of promotion of mitochondrial function and reduction in oxidative damage expression of the alpha subunit of ATP synthase-Complex V (CVα) of the mitochondrial oxidative phosphorylation pathway was assessed by Western blot analysis.

Bax/Bcl-2 = assay: In vivo apoptotic activity, Bax/Bcl-2 ratio by Western blot; conditions: indicator of in vivo apoptotic activity
Excerpt: The effects of various progestins on apoptosis was studied using Western blot analysis to determine the expression level of Bax, an apoptosis mediator by […] to the mitochondria to release apoptotic factors such as cytochrome c and Bcl-2. The ratio of Bax to Bcl-2 was used as an indicator of in vivo apoptotic activity.

[6] = system: hippocampi of ovariectomized female Sprague Dawley rats; assay type: in vivo; conditions: progestin plus E2, hippocampi 24 hours after injection, FIG. 9A
Description: The impact of the combination of 17β-estradiol (E2) and various progestins on neurogenesis and cell viability […] was also carried out. Young adult ovariectomized female Sprague Dawley rates were thus divided into six groups and received injection of either E2 alone or E2 combined with one of the progestins. Hippocampi were isolated 24 hours later for Western blot analysis and flow cytometry to determine the impact of treatment on cell viability and neurogenesis respectively. The expression level of PCNA was assessed to determine the impact of the treatment compounds on entry into the cell cycle required for neurogenesis.

PR^lacz mice with MCAO = assay: Transient middle cerebral artery occlusion (MCAO), steroid treatment after reperfusion; assay type: in vivo, mouse
Description: In experiments conducted using progesterone receptor (PR) deficient mice (PR^−/−) compared with PR^+/− and PR^+/+ mice and both progesterone and Nestorone® were administered after ischemia and reperfusion.
In order to test the effect of steroid treatments after reperfusion, adult male PR^lacz mice were anesthetized and the middle cerebral artery (MCA) was occluded for one hour with an intraluminal filament. After ligature of the left common carotid artery, a nylon monofilament coated with thermo-melting glue was introduced through an arteriotomy performed on the external carotid artery and advanced into the internal carotid artery. Occlusion of the MCA was controlled by monitoring the cerebral blood flow within the MCA territory by laser Doppler flowmetry. The filament was withdrawn one hour after occlusion to allow reperfusion, and the common carotid artery ligature was also removed. The mice were randomly and blindly assigned to either progesterone, allopregnanolone or Nestorone®, or vehicle-treated (sesame oil; sigma). All of the steroids were initially dissolved in a small volume of ethanol and further diluted in sesame oil to obtain the desired final steroid concentrations. Injections were given interperitoneally (IP) at 1, 6, and 24 hours after MCA occlusion (MCAO) according to established neuroprotective protocols. Treated mice were killed at 48 hours after MCAO.
Cerebral infarct volumes and areas were determined after triphenyltetrazolium chloride (TTC) staining of brain sections. The details of this procedure are set forth in “Progesterone Receptors: A Key For Neuroprotection In Experimental Stroke,” Endocrinology, August 2012, 153(8), pp. 1-11, which is incorporated herein by reference thereto in its entirety. […] In FIGS. 11, 12 and 13, after the administration of progesterone and Nestorone®, in neuronal density the infarct (FIG. 11) and the penumbra (FIG. 12) can clearly be shown. In FIG. 13 the decrease in […] in the penumbra after administration of progesterone and Nestorone® is also clearly shown.

[7] = system: androgenic, estrogenic and glucocorticoid responses; conditions: cited from earlier work
[8] = PR^+/+ mice, 48 hours after MCAO

## C=C1C[C@H]2[C@@H]3CCC4=CC(=O)CC[C@@H]4[C@H]3CC[C@]2(C)[C@@]1(OC(C)=O)C(C)=O [Nestorone®, 16-methylene-17α-acetoxy-19-norpregn-4-ene-3,20-dione]
[1]
  promyelinating potency relative to PROG: significantly more potent than PROG
[1]; NES at 20 μm as active as PROG at 50 μm (FIG. 1)
  concentration of equal promyelinating activity: 20 μm
[1]; cerebellar slice culture
  myelination measured by myelin basic protein (MBP) immunoreactivity: promote dose-dependent myelination
[2]
  remyelination after lysolecithin demyelination: produced remyelination
[3]; FIG. 3 and FIG. 4
  proliferation of progenitor cells compared with progesterone: as effective or even more effective than progesterone
[3]; at 24 hours, FIGS. 6A-D
  NPC proliferation (BrdU incorporation) compared with progesterone: comparably efficacious at their EC100 concentrations
[4]; FIG. 5, NES and PROG at 10−7M
  neuroprotective efficacy against glutamate toxicity (LDH): exerted the higher efficacy
[4]; dose-response, FIGS. 7A-F
  neuroprotective efficacy against 200 μM glutamate (LDH release) compared with progesterone: comparable neuroprotective efficacy to that of progesterone
[5]; FACS, normalized to vehicle control, FIG. 8B
  total number of BrdU+ cells per hippocampus: slightly superior to progesterone in significantly increasing Brd+ cell numbers
[5]; Western blot
  CDC2 protein expression: significantly increased
[5]; Western blot, FIG. 8A
  PCNA expression at the protein level: slightly superior to progesterone
[5]; Western blot, FIG. 8C
  expression of alpha subunit of ATP synthase-Complex V (CVα): increased CVA expression even greater than progesterone and levonorgestrel
Bax/Bcl-2
  ratio of Bax/Bcl-2 expression: no effect
[6]
  PCNA expression and neural progenitor cell proliferation: greatest magnitude of PCNA expression and neural progenitor cell proliferation
PR^lacz mice with MCAO; PR^+/+ mice
  total infarct volume and ischemic lesions in cerebral cortex and subcortical structures, PR^+/+ mice: clearly reduced
PR^lacz mice with MCAO; [8]
  increase of time on the rotarod: 33%
  reduction of ischemic lesions in cerebral cortex: 22%
  reduction of ischemic lesions in subcortical structures: 52%
PR^lacz mice with MCAO; PR^+/+ mice, 48 hours after MCAO, IP at 1, 6 and 24 hours
  reduction of total infarct volume: 32%
PR^lacz mice with MCAO; PR^+/− mice
  total infarct volume and ischemic lesions in cerebral cortex and subcortical structures, PR^+/− mice: not
PR^lacz mice with MCAO; PR^−/−, PR^+/− and PR^+/+ mice, after ischemia and reperfusion
  protection against ischemic damage compared with progesterone: at least comparable results
PR^lacz mice with MCAO; after stroke
  efficient neuroprotective dose: 0.08 mg/kg
PR^lacz mice with MCAO; mouse, in vivo
  dose improving neurological outcomes relative to that of progesterone: 100 times lower
PR^lacz mice with MCAO; treatment after stroke
  microglial density in the penumbra (neuroinflammatory responses): reduced microglial density
  neuronal density in the infarct and in the penumbra: significantly increases the neuronal density
[7]
  androgenic response: no androgenic or estrogenic action at all
  estrogenic response: no androgenic or estrogenic action at all
  glucocorticoid response: does not elicit a glucocorticoid effect except at doses 2.000-fold the therapeutic dose
